Laboratory results: US20240398789A1, “PHARMACEUTICAL COMPOSITION FOR ENHANCING ANTI-TUMOR EFFECT OF EZH2 INHIBITOR AND USE THEREOF” (PEKING UNIVERSITY THIRD HOSPITAL, priority 2021, published 2024)

Assays:
hepatoma Huh7 cells = experiment: IncuCyte S3 live-cell proliferation of Huh7 cells; type: cell-based
Description: (§1) FIG. 1: Hematological tumors are more sensitive to GSK126 than solid tumors. (A) Proliferation of B16F10, Huh7 and SMMC7721 cells in GSK126 (10-20 μM) treatment was monitored by Incucyte S3 with 6 replicates per group; (B) Viabilities of Daudi and THP-1cells after GSK126 (200 nM to 24 μM) treatment for 24 h and 48 h were measured by CCK-8 assay with 5 replicates per group; (C) Western blot (WB) analysis on B16F10 cells after 48 h without or with GSK126 treatment (6 μM, and 12 μM), with H3 used as an internal reference for histone. 5 to 6 replicates were established for each group, with *P<0.05, **P<0.01, and ***P<0.001, and ns for no statistical difference.
(§2) In order to accurately assess the responsiveness of solid tumor cells to EZH2 inhibitors, the effects of GSK126 at different concentrations on the proliferation of melanoma B16F10 cells and hepatoma Huh7 and SMMC-7721 cells were initially detected by IncuCyte S3® Live-Cell Analysis System.

B16F10 cells = experiment: Apoptosis of B16F10 cells by flow cytometry and live-cell fluorescence imaging; type: cell-based; conditions: GSK126 10 μM
Description: (§3) FIG. 2: Melanoma cells B16F10 are less sensitive to GSK126. (A) Cell scratch assay, showing the effect of GSK126 (10 μM) treatment on the migration capability of B16F10 cells, with 3 replicates per group; (B-C) the effect of GSK126 (10, 13, and 15 μM) on the apoptosis rate of B16F10 cells, as examined by flow cytometry (C) and Annexin V staining assay. 3 replicates were established for each group, with *P<0.05, **P<0.01, and ***P<0.001, and ns for no statistical difference.
(§4) Next, to further validate the effect of GSK126 at 10 μM on melanoma cells B16F10,scratch assay was conducted. […] In addition, to assess the anti-survival effect of GSK126, B16F10 cells were treated by GSK126 at different concentrations for different periods, and the apoptosis rate of the cells was analyzed by flow cytometry (FIG. 2B) and live-cell fluorescence imaging (FIG. 2C).

[1] = test system: H3K27me3 level in B16F10 cells; experiment: Western blot of H3K27me3 in B16F10 cells; type: cell-based; conditions: GSK126 6 μM, 48 h, H3 internal reference
Description: as §1

[2] = test system: ACLY, FASN, SCD in Huh7 cells; experiment: RT-qPCR/WB of fatty acid synthesis genes in Huh7 cells; type: cell-based; conditions: after GSK126 treatment
From the text: (§5) FIG. 4: Lipid accumulation in mice after GSK126 treatment. (A) H & E and oil red O staining of the liver tissue sections of the tumor-bearing mice in the control group and the GSK126 treatment group, in which the statistical results of negative or positive staining area were shown on the right (3 replicates per group); (B) TG level in the serum of the tumor-bearing mice in the control group and the GSK126 treatment group (5 replicates per group); (C-D) mRNA (C) and protein (D) levels of the genes related to fatty acid anabolism in the GSK126-treated HCC cells, as detected by RT-qPCR and WB (3 replicates per group). 3 to 5 replicates were established for each group, with *P<0.05, **P<0.01.
(§6) C57BL/6 mice (6-8 weeks old) were subcutaneously implanted with B16F10 cells and then treated with GSK126. […] Therefore, the expression of fatty acid synthesis-related genes in GSK126-treated hepatocellular carcinoma (HCC) cell lines SMMC7721 and Huh7 was further detected.

[3] = test system: Burkitt's lymphoma cells (Daudi); experiment: CCK-8 cell proliferation assay, Daudi; type: cell-based
Description: as §1

melanoma B16F10 cells [4] = experiment: Fatty acid metabolite levels in B16F10 cells; type: cell-based; conditions: GSK126 group
From the text: FIG. 3: GSK126 results in significant elevated levels of 6 fatty acids in melanoma B16F10 cells.
Among the metabolites with significant changes, the levels of many fatty acids increased in the GSK126 group. There are five polyunsaturated fatty acids, including α-linolenic acid, DHA, EPA, linoleic acid, and γ-linolenic acid) and one monounsaturated fatty acid, i.e., 10Z-heptadienoic acid (FIG. 3).

hepatoma SMMC-7721 cells = experiment: IncuCyte S3 live-cell proliferation of SMMC-7721 cells; type: cell-based
Description: as §1
(§7) FIG. 6: Lipid-modulating drugs can enhance the inhibitory effect of GSK126 on cancer cells. […] 3 to 5 replicates were established for each group, with *P<0.05, **P<0.01, and ***P<0.001.
as §2

[5] = test system: mouse brain glioma cell line (GL261); experiment: IncuCyte S3 live-cell proliferation of GL261 cells; type: cell-based
Description: 3 to 6 replicates were established for each group, with *P<0.05, **P<0.01, and ***P<0.001, and ns for no statistical difference.
IncuCyte S3® Live-Cell Analysis System was used to monitor and analyze the growth of mouse glioma GL261 cells. • (1) GL-261 cells in logarithmic growth phase were prepared into a single cell suspension, and the cells were counted; • (2) GL261 cells were added into a 96-well plate at a density of 8x10^4 cells/mL, with 4-6 replicate wells per each group; • (3) The 96-well plate was then placed in an incubator for another 12-24 hours, and the plate was refreshed with a culture medium containing the drug at the cell confluence of about 20-30%. GSK126 and fenofibrate (FF) were serially diluted using the medium; • (4) The 96-well plate was then placed in the incubator suitable for the instrument, and detected with IncuCyte S3® Live-Cell Analysis System. Cell growth images of 4 different areas in each well were taken at an interval of 4 h using a 10× objective lens. • (5) The plate was real-time monitored for 48 h, and the cell confluence was determined by defining the cell edge using IncuCyte S3 image analysis software and normalized to the cell confluence at 0 h. […]

C57BL/6 mice = experiment: Lipid accumulation in B16F10 tumor-bearing C57BL/6 mice; type: in vivo; conditions: B16F10 tumor-bearing C57BL/6 mice treated with GSK126
From the text: as §5, §6

melanoma B16F10 cells [6] = experiment: IncuCyte S3 live-cell proliferation of B16F10 cells; type: cell-based
Description: as §1
P=0.0108, P=0.0385, Kaplan-Meier survival analysis; (C) effect of telmisartan at different concentrations on the proliferation of U87 cells (left) and U251 cells (right) (3 replicates per group); (D) effect of fenofibrate at different concentrations on the proliferation of B16F10 cells (left) and 4T1 cells (right) (3 replicates per group); (E) FACS quantitative analysis of the percentage of cells positive for EdU (FITC+) staining 48 h after the telmisartan treatment on U87 and U251 cells. Single cells were first gated, followed by FITC+cells. The percentage of FITC+ cells was listed above the corresponding cell population. […]

THP-1 cells = experiment: CCK-8 cell proliferation assay, THP-1; type: cell-based; conditions: 10 μM GSK126 for 24 h and 48 h
Description: as §1

melanoma cells B16F10 = experiment: Cell scratch assay (migration) of B16F10 cells; type: cell-based; conditions: GSK126 10 μM, 36 h of culture, vs control group
Description: as §3, §4

[7] = test system: hematologic cancer cell lines; conditions: most hematologic cancer cell lines; many studies; read-out: IC50 (half-maximal inhibitory concentration); cited from earlier work
[8] = test system: ACLY, FASN, SCD in SMMC7721 cells; experiment: RT-qPCR/WB of fatty acid synthesis genes in SMMC7721 cells; type: cell-based; conditions: after GSK126 treatment
From the text: as §5, §7, §6

U87 cells = experiment: EdU staining with flow cytometry, U87; type: cell-based, human; conditions: telmisartan 50 μM, 48 h, 24.25% before treatment
Description: (§8) P=0.0108, P=0.0385, Kaplan-Meier survival analysis; (C) effect of telmisartan at different concentrations on the proliferation of U87 cells (left) and U251 cells (right) (3 replicates per group); (D) effect of fenofibrate at different concentrations on the proliferation of B16F10 cells (left) and 4T1 cells (right) (3 replicates per group); (E) FACS quantitative analysis of the percentage of cells positive for EdU (FITC+) staining 48 h after the telmisartan treatment on U87 and U251 cells. Single cells were first gated, followed by FITC+cells. The percentage of FITC+ cells was listed above the corresponding cell population. 3 replicates were established for each group, with *P<0.05, **P<0.01, ***P<0.001, and ****P<0.0001, and ns for no statistical difference.
(§9) Therefore, telmisartan and fenofibrate were selected to explore whether lipid metabolism-regulating drugs have anti-tumor effects. […] The effect of telmisartan (50 μM) on cell proliferation was further verified by EdU staining.

human glioma cells U251 = experiment: Incucyte real-time proliferation of U251 cells; type: cell-based; conditions: telmisartan at different concentrations
Description: as §8, §9

U251 cells = experiment: EdU staining with flow cytometry, U251; type: cell-based, human; conditions: telmisartan 50 μM, 48 h, 41.44% before treatment
Description: as §8, §9

human glioma cells U87 = experiment: Incucyte real-time proliferation of U87 cells; type: cell-based; conditions: telmisartan at different concentrations
Description: as §8, §9

[9] = GSK126 at different concentrations (10-20 μM)

SMILES: CC[C@H](C)n1cc(C)c2c(C(=O)NCc3c(C)cc(C)[nH]c3=O)cc(-c3ccc(N4CCNCC4)nc3)cc21 [GSK126]
- cell proliferation (hepatoma Huh7 cells; GSK126 10 μM): less effective
- cell proliferation (hepatoma Huh7 cells; [9]): inhibited cell proliferation in a dose-dependent manner
- apoptosis rate (B16F10 cells): limited capability to induce apoptosis
- H3K27me3 level [1]: significantly down-regulated
- mRNA and protein levels of ACLY, FASN, and SCD [2]: significantly elevated
- sensitivity (CCK-8 proliferation) ([3]; 1 μM GSK126): very sensitive
- proliferation (CCK-8) ([3]; 10 μM GSK126 for 24 h and 48 h): significantly inhibited
- levels of fatty acids (α-linolenic acid, DHA, EPA, linoleic acid, γ-linolenic acid, 10Z-heptadienoic acid) (melanoma B16F10 cells [4]): increased
- cell proliferation (hepatoma SMMC-7721 cells; GSK126 10 μM): less effective
- cell proliferation (hepatoma SMMC-7721 cells; [9]): inhibited cell proliferation in a dose-dependent manner
- inhibitory effect on cell proliferation ([5]; GSK126 20 μM alone, compared with 40 μM or combination): can not achieved
- inhibitory effect on cell proliferation ([5]; GSK126 40 μM, compared with GSK126 20 μM + fenofibrate 10 μM): the same as that of the combination
- fat vacuoles and lipid deposition in liver tissue sections (H & E and oil red O staining) (C57BL/6 mice): significant increase
- levels of triglycerides (TG) in blood (C57BL/6 mice): significantly elevated
- cell proliferation (melanoma B16F10 cells [6]; GSK126 10 μM): less effective
- cell proliferation (melanoma B16F10 cells [6]; [9]): inhibited cell proliferation in a dose-dependent manner
- proliferation (CCK-8) (THP-1 cells): significantly inhibited
- cell migration (melanoma cells B16F10): did not effectively inhibit cell migration
- IC50 [7]: < 1000 nM
- mRNA and protein levels of ACLY, FASN, and SCD [8]: significantly elevated

SMILES: CCCc1nc2c(C)cc(-c3nc4ccccc4n3C)cc2n1Cc1ccc(-c2ccccc2C(=O)O)cc1 [telmisartan]
- percentage of EdU+ cells (U87 cells): 21.16%
- cell proliferation (human glioma cells U251): inhibit the proliferation
- percentage of EdU+ cells (U251 cells): 38.78%
- cell proliferation (human glioma cells U87): inhibit the proliferation
